Twelve compounds from ChEMBL document CHEMBL1157938, “Cytotoxicity and inhibition of DNA topoisomerase I of polyhydroxylated triterpenoids and triterpenoid glycosides” (Bioorg Med Chem Lett, 2010) can be followed below.

For orientation: IC50 means the midpoint of a concentration-inhibition curve. Read a low IC50 as inhibition by little substance.

SMILES strings stand for the structures. Active and inactive are the calls of the source. No cut-off for these calls is given here.

One data set deals with HL-60. Kind of data set: Cytotoxicity against human HL60 cells at 25 uM after 48 hrs by WST8 assay. In kind it is functional, cell-based.
The next data set concerns PANC-1. In words: Cytotoxicity against human PANC1 cells at 25 uM after 48 hrs by WST8 assay. In kind it is functional, cell-based.
A further data set deals with MRC5. In words: Cytotoxicity against human MRC5 cells at 25 uM after 48 hrs by WST8 assay. The format is cell-based. To be noted: mrc5, 48 h. (In general: Formazan colour is commonly taken as a measure of viable cells.)
In another data set the test system is PC-3. In words: Cytotoxicity against human PC3 cells at 25 uM after 48 hrs by WST8 assay. In kind it is functional, cell-based.
The subject of a further data set is A549. Kind of data set: Cytotoxicity against human A549 cells at 25 uM after 48 hrs by WST8 assay. In kind it is functional, cell-based.
Data set [1] addresses DNA topoisomerase 2-alpha (Homo sapiens, UniProt P11388). Kind of data set: Inhibition of human DNA topoisomerase 2-mediated relaxation of supercoiled DNA by gel electrophoresis.
For the next data set, the target named is T1, DNA topoisomerase 1 (Homo sapiens, UniProt P11387).
T1 sequence (P11387 whole entry): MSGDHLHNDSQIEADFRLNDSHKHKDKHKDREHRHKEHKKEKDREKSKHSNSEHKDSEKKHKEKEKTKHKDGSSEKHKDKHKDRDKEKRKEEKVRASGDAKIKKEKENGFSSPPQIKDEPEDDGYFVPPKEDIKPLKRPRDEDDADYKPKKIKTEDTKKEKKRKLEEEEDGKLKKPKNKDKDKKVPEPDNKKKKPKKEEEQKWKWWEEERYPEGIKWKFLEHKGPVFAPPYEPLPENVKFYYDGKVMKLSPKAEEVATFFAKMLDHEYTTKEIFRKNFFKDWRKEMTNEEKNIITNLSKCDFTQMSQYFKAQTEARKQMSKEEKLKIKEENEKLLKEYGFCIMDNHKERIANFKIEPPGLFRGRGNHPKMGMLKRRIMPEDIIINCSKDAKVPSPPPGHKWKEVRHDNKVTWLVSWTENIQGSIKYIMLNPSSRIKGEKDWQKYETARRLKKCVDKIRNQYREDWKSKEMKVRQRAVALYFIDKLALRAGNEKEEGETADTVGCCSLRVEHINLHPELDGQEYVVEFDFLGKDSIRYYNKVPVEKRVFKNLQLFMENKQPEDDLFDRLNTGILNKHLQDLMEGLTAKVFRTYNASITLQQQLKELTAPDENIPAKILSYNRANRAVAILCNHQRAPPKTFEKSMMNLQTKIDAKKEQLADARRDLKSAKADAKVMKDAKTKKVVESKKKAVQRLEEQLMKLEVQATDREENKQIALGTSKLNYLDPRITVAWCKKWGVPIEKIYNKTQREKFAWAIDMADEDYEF
Kind of data set: Inhibition of human DNA topoisomerase 1-mediated relaxation of supercoiled DNA by gel electrophoresis.

DNA topoisomerase 2-alpha, sequence (P11388 whole entry): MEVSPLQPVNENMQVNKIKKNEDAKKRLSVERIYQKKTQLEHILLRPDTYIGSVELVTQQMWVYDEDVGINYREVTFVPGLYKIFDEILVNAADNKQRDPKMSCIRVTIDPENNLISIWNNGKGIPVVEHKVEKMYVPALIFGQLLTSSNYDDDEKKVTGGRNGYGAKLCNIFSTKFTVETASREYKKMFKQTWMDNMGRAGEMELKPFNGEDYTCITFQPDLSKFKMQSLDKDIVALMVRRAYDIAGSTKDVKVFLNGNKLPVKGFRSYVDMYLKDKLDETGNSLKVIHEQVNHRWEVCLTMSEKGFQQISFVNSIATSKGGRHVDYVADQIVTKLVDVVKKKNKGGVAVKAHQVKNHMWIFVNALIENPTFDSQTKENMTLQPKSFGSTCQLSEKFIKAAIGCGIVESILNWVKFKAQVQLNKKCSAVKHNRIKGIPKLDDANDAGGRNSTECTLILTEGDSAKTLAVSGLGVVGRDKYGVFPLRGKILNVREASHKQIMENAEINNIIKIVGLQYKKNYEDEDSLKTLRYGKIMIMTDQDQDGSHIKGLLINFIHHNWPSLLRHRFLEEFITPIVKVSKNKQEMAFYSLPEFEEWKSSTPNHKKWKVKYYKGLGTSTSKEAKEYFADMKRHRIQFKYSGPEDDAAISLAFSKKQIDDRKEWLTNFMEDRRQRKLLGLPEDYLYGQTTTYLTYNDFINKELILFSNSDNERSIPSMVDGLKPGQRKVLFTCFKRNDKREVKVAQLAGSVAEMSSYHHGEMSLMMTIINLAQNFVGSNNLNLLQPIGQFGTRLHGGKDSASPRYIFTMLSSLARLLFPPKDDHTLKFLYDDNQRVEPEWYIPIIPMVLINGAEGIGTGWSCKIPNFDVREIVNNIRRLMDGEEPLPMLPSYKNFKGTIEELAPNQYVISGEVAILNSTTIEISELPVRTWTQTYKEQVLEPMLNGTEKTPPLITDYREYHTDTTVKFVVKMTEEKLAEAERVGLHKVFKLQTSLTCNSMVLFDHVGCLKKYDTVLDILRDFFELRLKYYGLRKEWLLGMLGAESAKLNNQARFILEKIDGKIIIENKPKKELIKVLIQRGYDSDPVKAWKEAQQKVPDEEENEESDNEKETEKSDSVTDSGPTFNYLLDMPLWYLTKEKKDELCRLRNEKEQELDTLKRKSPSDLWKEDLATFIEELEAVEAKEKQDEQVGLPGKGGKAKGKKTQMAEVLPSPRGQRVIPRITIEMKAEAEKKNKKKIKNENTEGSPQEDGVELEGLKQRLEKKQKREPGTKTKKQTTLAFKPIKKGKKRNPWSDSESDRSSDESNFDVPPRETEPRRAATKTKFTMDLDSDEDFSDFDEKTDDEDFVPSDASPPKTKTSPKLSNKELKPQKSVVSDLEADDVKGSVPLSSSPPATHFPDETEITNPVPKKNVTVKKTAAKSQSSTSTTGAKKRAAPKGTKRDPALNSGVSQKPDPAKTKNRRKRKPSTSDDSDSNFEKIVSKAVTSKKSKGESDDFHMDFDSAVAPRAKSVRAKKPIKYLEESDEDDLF

For the compound `CC1(C)C[C@H]2C3=CC[C@@H]4[C@@]5(C)CC[C@H](O[C@@H]6O[C@H](C(=O)O)[C@@H](O)[C@H](O[C@@H]7O[C@@H](CO)[C@H](O)[C@H]7O)[C@H]6O[C@@H]6O[C@H](CO)[C@H](O)[C@H](O)[C@H]6O)C(C)(C)[C@@H]5CC[C@@]4(C)[C@]3(C)C[C@@H](O)[C@@]2(CO)[C@@H](O)[C@@H]1O` [AESCULIOSIDE IC], the “growth inhibition (GI)” value in the data set with HL-60, in the data set with PANC-1, with PC-3 and in the data set on A549 was “inactive” in each case. Further, the “growth inhibition (GI)” value in the data set on MRC5 is “Not Active”.

For `C[C@@H]1O[C@H](O[C@@H]2[C@@H](O)[C@H](O[C@H]3CC[C@]4(C)[C@H]5CC=C6[C@@H]7CC(C)(C)CC[C@]7(C(=O)O[C@@H]7O[C@H](CO)[C@@H](O)[C@H](O)[C@H]7O)CC[C@@]6(C)[C@]5(C)CC[C@H]4C3(C)C)O[C@H](C(=O)O)[C@H]2O)[C@H](O)[C@H](O)[C@H]1O`, the “growth inhibition (GI)” value with HL-60, in the data set with PANC-1, in the data set on PC-3 and in the data set on A549 was “inactive” throughout. The “growth inhibition (GI)” value with MRC5 is “Not Active”.

Take `CC1(C)C[C@H]2C3=CC[C@@H]4[C@@]5(C)CC[C@H](O[C@@H]6O[C@H](C(=O)O)[C@@H](O)[C@H](O[C@@H]7O[C@@H](CO)[C@H](O)[C@H]7O)[C@H]6O[C@@H]6O[C@H](CO)[C@@H](O)[C@H](O)[C@H]6O)[C@](C)(CO)[C@@H]5CC[C@@]4(C)[C@]3(C)[C@@H](O)[C@@H](O)[C@@]2(CO)[C@@H](O)[C@@H]1O` [AESCULIOSIDE IB]: the “growth inhibition (GI)” value in the data set with HL-60, with PANC-1, in the data set on PC-3 and with A549 was “inactive” each time. Also, the “growth inhibition (GI)” value in the data set with MRC5 is listed as “Not Active”.

`CC(C)=CCC[C@](C)(O[C@@H]1O[C@H](CO[C@@H]2O[C@H](CO)[C@@H](O)[C@H](O)[C@H]2O)[C@@H](O)[C@H](O)[C@H]1O)[C@H]1CC[C@]2(C)[C@@H]1[C@H](O)C[C@@H]1[C@@]3(C)CC[C@H](O[C@@H]4O[C@H](CO)[C@@H](O)[C@H](O)[C@H]4O)C(C)(C)[C@@H]3CC[C@]12C` [GYPENOSIDE XVII]: the “growth inhibition (GI)” value in the data set on HL-60, in the data set with PANC-1, with PC-3 and in the data set with A549 was “inactive” in each case. Besides, the IC50 (in data set [1]; against DNA topoisomerase 1) was more than 250 µM in each case.

With `CC(C)=CCC[C@](C)(O[C@@H]1O[C@H](CO[C@H]2O[C@H](CO)[C@@H](O)[C@@H]2O)[C@@H](O)[C@H](O)[C@H]1O)[C@H]1CC[C@]2(C)[C@@H]1[C@H](O)C[C@@H]1[C@@]3(C)CC[C@H](O)C(C)(C)[C@@H]3[C@@H](O)C[C@]12C` [GINSENOSIDE F5], the “growth inhibition (GI)” value in the data set on HL-60, in the data set with PANC-1, in the data set on PC-3 and in the data set on A549 was “inactive” in each case. For the same compound, the IC50 (in data set [1]; against DNA topoisomerase 1) was more than 250 µM throughout.

For the compound `C[C@H]1[C@H](C)CC[C@]2(C(=O)O[C@@H]3O[C@H](CO)[C@@H](O)[C@H](O)[C@H]3O)CC[C@]3(C(=O)O)C(=CC[C@@H]4[C@@]5(C)CC[C@H](O[C@H]6O[C@@H](C)[C@H](O)[C@@H](O)[C@@H]6O)C(C)(C)[C@@H]5CC[C@]43C)[C@H]12`, the “growth inhibition (GI)” value in the data set on HL-60, in the data set with PANC-1, in the data set with PC-3 and in the data set on A549 was “inactive” each time. Also, the IC50 (in data set [1]; against DNA topoisomerase 1) was more than 250 µM throughout.

As for `CC(C)=CCC[C@@](C)(O)[C@H]1CC[C@]2(C)[C@@H]1[C@H](O)C[C@@H]1[C@@]3(C)CC[C@H](O[C@@H]4O[C@H](CO)[C@@H](O)[C@H](O)[C@H]4O[C@@H]4O[C@H](CO)[C@@H](O)[C@H](O)[C@H]4O)C(C)(C)[C@@H]3CC[C@]12C`, the “growth inhibition (GI)” value in the data set on HL-60, with PANC-1, in the data set on PC-3 and with A549 was “inactive” throughout. The IC50 (in data set [1]; against DNA topoisomerase 1) was more than 250 µM in each case.

Take `C[C@H]1[C@H](C)CC[C@]2(C(=O)O)CC[C@]3(C(=O)O)C(=CC[C@@H]4[C@@]5(C)CC[C@H](O[C@@H]6O[C@H](CO)[C@@H](O)[C@H](O)[C@H]6O)C(C)(C)[C@@H]5CC[C@]43C)[C@H]12`: the “growth inhibition (GI)” value in the data set with HL-60, in the data set with PANC-1, in the data set with PC-3 and in the data set on A549 was “inactive” throughout. Further, the IC50 (in data set [1]; against DNA topoisomerase 1) was more than 250 µM each time.

As to `CC(C)=CC/C=C(/C)[C@H]1CC[C@]2(C)[C@@H]1[C@H](O)C[C@@H]1[C@@]3(C)CC[C@H](O)C(C)(C)[C@@H]3[C@@H](O)C[C@]12C`, the “growth inhibition (GI)” value in the data set on HL-60, in the data set with PANC-1, in the data set on PC-3 and with A549 was “inactive” each time. Moreover, the IC50 (in data set [1]; at DNA topoisomerase 1) was more than 250 µM each time.

For the compound `C[C@H]1[C@H](C)CC[C@]2(C(=O)O[C@@H]3O[C@H](CO)[C@@H](O)[C@H](O)[C@H]3O)CC[C@]3(C(=O)O)C(=CC[C@@H]4[C@@]5(C)CC[C@H](O[C@@H]6O[C@H](CO)[C@@H](O)[C@H](O)[C@H]6O)C(C)(C)[C@@H]5CC[C@]43C)[C@H]12`, the “growth inhibition (GI)” value in the data set on HL-60, in the data set with PANC-1, with PC-3 and with A549 was “inactive” each time. Also, the IC50 (in data set [1]; against DNA topoisomerase 1) was more than 250 µM in each case.

Take `CC(C)=CCC[C@](C)(O[C@@H]1O[C@H](CO)[C@@H](O)[C@H](O)[C@H]1O)[C@H]1CC[C@]2(C)[C@@H]1[C@H](O)C[C@@H]1[C@@]3(C)CC[C@H](O[C@@H]4O[C@H](CO)[C@@H](O)[C@H](O)[C@H]4O)C(C)(C)[C@@H]3CC[C@]12C` [GINSENOSIDE F2]: the “growth inhibition (GI)” value with HL-60, with PANC-1, in the data set on PC-3 and in the data set with A549 was “inactive” each time. Moreover, the IC50 (in data set [1]; against DNA topoisomerase 1) was more than 250 µM throughout.

Take `C[C@H]1[C@H](C)CC[C@]2(C(=O)O[C@@H]3O[C@H](CO)[C@@H](O)[C@H](O)[C@H]3O)CC[C@]3(C(=O)O)C(=CC[C@@H]4[C@@]5(C)CC[C@H](O)C(C)(C)[C@@H]5CC[C@]43C)[C@H]12`: the “growth inhibition (GI)” value with HL-60, with PANC-1, with PC-3 and in the data set with A549 was “inactive” in each case. The IC50 (in data set [1]; on DNA topoisomerase 1) was more than 250 µM in each case.
